Here are results for 36 compounds from paper PMC11247503 (Journal of Medicinal Chemistry, 2024).

Counter-ions that a name gives are not always drawn.

As usually defined, the inhibition is the drop in the measured response relative to a control, in per cent.

One assay addresses T1, mouse Spns2 (Mus musculus, UniProt Q91VM4).
T1 construct: expressed in transfected cells; host or cells: HeLa cells (G418-resistant pools)
T1 sequence (Q91VM4 1-549): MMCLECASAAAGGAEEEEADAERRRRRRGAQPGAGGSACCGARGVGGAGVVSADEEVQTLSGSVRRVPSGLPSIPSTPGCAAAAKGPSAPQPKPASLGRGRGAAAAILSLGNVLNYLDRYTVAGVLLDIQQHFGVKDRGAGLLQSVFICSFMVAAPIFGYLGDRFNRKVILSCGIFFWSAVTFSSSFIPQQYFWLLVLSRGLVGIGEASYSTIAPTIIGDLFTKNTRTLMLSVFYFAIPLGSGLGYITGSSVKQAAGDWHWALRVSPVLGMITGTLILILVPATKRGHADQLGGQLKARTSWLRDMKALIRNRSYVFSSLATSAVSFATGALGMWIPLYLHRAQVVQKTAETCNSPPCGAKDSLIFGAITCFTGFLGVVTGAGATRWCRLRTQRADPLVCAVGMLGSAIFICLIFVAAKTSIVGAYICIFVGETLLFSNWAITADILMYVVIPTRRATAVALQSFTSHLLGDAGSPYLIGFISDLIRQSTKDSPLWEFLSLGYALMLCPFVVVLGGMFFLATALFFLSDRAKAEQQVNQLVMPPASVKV
Description: HeLa cell S1P release assay (Spns2 inhibition). Format: cell-based. The following applies: 1 μM inhibitor; HeLa cells; S1P in media by LC-MS/MS. Here is the method: With a library of analogs of SLB1122168 containing phenylurea, phenylcarbamate, and benzamide as bioisostere of the benzoxazole, we investigated their potential in inhibiting S1P transport using a HeLa cell assay.[36]−[38],[43] Briefly, in this assay, Spns2 is overexpressed whereas the S1P-degrading enzymes (lyase or phosphatases) were blocked with inhibitors.[44],[45] Inhibition of S1P transport is determined by measuring the amount of S1P in the buffer using LC-MS.
This assay was conducted as reported by Kharel et al.[43] Briefly, compounds were assessed in a HeLa cell assay at a 1 μM test concentration, unless noted otherwise. HeLa cells were transfected with a pcDNA3.1 plasmid encoding mouse Spns2, and pools of cells resistant to G418 were selected. S1P catabolic pathways were suppressed by the addition of 4-deoxypyridoxine (1 mM), NaF (2 mM), and Na3VO4 (0.2 mM). After growing cells to near confluence on 12-well tissue culture dishes, growth media was removed, inhibitors were introduced in release media (serum free medium containing 0.2% fatty acid free BSA), and the cells were incubated for 16–18 h at 37 °C. The BSA with bound S1P was concentrated from the release media by TFA-driven precipitation after addition of the d7-S1P internal standard, the S1P extracted from the protein pellet, and quantified by LC-MS/MS. Lower levels of S1P release into the media indicated greater degrees of Spns2 inhibition. Inhibition is reported as the percent decrease in S1P release relative to the control where no inhibitor was introduced.
With “2-Aminoethyl (4-Decylphenyl)carbamate Hydrochloride [8a]”, the “%Inhib. (Spns2 inhibition, percent decrease in S1P secretion relative to control)” value is recorded as 44 ± 7%.

Staying with this assay, now noted: 1 μM inhibitor; HeLa cells; S1P in media by LC-MS/MS; 1 µM.
For the compound `CCCCCCCCCCc1ccc(C(=O)N[C@@H]2CCNC2)cc1.Cl` [(R)-4c, (R)-4-Decyl-N-(pyrrolidin-3-yl)benzamide Hydrochloride], the “%Inhib. (Spns2 inhibition, percent decrease in S1P secretion relative to control)” value amounted to 66 ± 1%.

Staying with this assay, now noted: HeLa, 0.3 μM inhibitor (Figure 5); HeLa cells; read-out: % Inhibition, tail homologation study.
For the compound `CCCCCCc1ccc(NC(=O)N2CCNCC2)cc1` [20a, N-(4-Hexylphenyl)piperazine-1-carboxamide Hydrogen Chloride], the inhibition at 0.3 µM stood at 19 ± 2%.
Still for that read-out and setting: the result for `CCCCCCCc1ccc(NC(=O)N2CCNCC2)cc1` [20b, N-(4-Heptylphenyl)piperazine-1-carboxamide Hydrogen Chloride] reads 28 ± 5%.
The same measure, in the same setting: under `CCCCCCCCc1ccc(NC(=O)N2CCNCC2)cc1` [20c, N-(4-Octylphenyl)piperazine-1-carboxamide Hydrogen Chloride] stands 48 ± 7%.
On the same count and under the same terms, under `CCCCCCCCCc1ccc(NC(=O)N2CCNCC2)cc1` [20d, N-(4-Nonylphenyl)piperazine-1-carboxamide Hydrogen Chloride] stands 61 ± 4%; under `CCCCCCCCCCCc1ccc(NC(=O)N2CCNCC2)cc1` [20e, N-(4-Undecylphenyl)piperazine-1-carboxamide Hydrogen Chloride], 76 ± 5%; under `CCCCCCCCCCCCc1ccc(NC(=O)N2CCNCC2)cc1` [20f, N-(4-Dodecylphenyl)piperazine-1-carboxamide Hydrogen Chloride], 57 ± 1%.
Consider `CCCCCCCCCCCCCc1ccc(NC(=O)N2CCNCC2)cc1` [20g, N-(4-Tridecylphenyl)piperazine-1-carboxamide Hydrogen Chloride], for which the inhibition at 0.3 µM stood at 27 ± 12%.

The assay is the same for the next values; noted with them: HeLa, 1 μM inhibitor; HeLa cells; S1P in media by LC-MS/MS; read-out: %Inhib. (Spns2 inhibition, percent decrease in S1P secretion relative to control).
Take `CCCCCCCCCCc1ccc(C(=O)N2CCNCC2C)cc1` (racemic) [(±)-4j, (4-Decylphenyl)(2-methylpiperazin-1-yl)methanone Hydrochloride]: the inhibition at 1 µM amounted to 61 ± 2%.
Consider `CCCCCCCCCCc1ccc(C(=O)NCCCN)cc1` [4a, N-(3-Aminopropyl)-4-decylbenzamide Hydrochloride], for which the inhibition at 1 µM is 39 ± 9%.
Still for that read-out and setting: under `CCCCCCCCCCc1ccc(C(=O)NC2CCNCC2)cc1` [4g, 4-Decyl-N-(piperidin-4-yl)benzamide Hydrochloride] stands 24 ± 2%; under `CCCCCCCCCCc1ccc(C(=O)N2CCNCC2)cc1` [4h, (4-Decylphenyl)(piperazin-1-yl)methanone Hydrochloride], 68 ± 5%; under `CCCCCCCCCCc1ccc(C(=O)N2CC3CCC(C2)N3)cc1` [4k, (3,8-Diazabicyclo[3.2.1]octan-3-yl)(4-decylphenyl)methanone Hydrochloride], 0%.
With `CCCCCCCCCCc1ccc(C(=O)N2CC3CC2CN3)cc1` (stereo not shown) [4l, (2,5-Diazabicyclo[2.2.1]heptan-2-yl)(4-decylphenyl)methanone Hydrochloride], the inhibition at 1 µM amounted to 25 ± 2%.
Still for that read-out and setting: under `CCCCCCCCCCc1ccc(NC(=O)OC2CCNCC2)cc1` [8f, Piperidin-4-yl (4-Decylphenyl)carbamate Hydrochloride] stands 51%.
Regarding `CCCCCCCCCCc1ccc(NC(=O)NCCCN)cc1` [11a, 1-(3-Aminopropyl)-3-(4-decylphenyl)urea Hydrochloride], the inhibition at 1 µM was determined as 53%.
On the same count and under the same terms, under `CCCCCCCCCCc1ccc(NC(=O)NC2CNC2)cc1` [11b, 1-(Azetidin-3-yl)-3-(4-decylphenyl)urea 2,2,2-Trifluoroacetate] stands 59 ± 1%; under `CCCCCCCCCCc1ccc(NC(=O)N2CCC(N)CC2)cc1` [11g, 4-Amino-N-(4-decylphenyl)piperidine-1-carboxamide Hydrochloride], 59 ± 2%; under `CCCCCCCCCCc1ccc(NC(=O)NC2CCNCC2)cc1` [11h, 1-(4-Decylphenyl)-3-(piperidin-4-yl)urea Hydrochloride], 34 ± 9%.
With `CCCCCCCCCCc1ccc(NC(=O)N2CC3CC2CN3)cc1` (stereo not shown) [11j, N-(4-Decylphenyl)-2,5-diazabicyclo[2.2.1]heptane-2-carboxamide Hydrochloride], the inhibition at 1 µM is 35%.
Take `CCCCCCCCCCc1ccc(NC(=O)N2CC3CCC(C2)N3)cc1` [11k, N-(4-Decylphenyl)-3,8-diazabicyclo[3.2.1]octane-3-carboxamide Hydrochloride]: the inhibition at 1 µM was found to be 77%.
On the same count and under the same terms, the result for `CCCCCCCCCCc1ccc(NC(=O)N2CCCNCC2)cc1` [11m, N-(4-Decylphenyl)-1,4-diazepane-1-carboxamide Hydrochloride] reads 72 ± 1%.
The same measure, in the same setting: under `CCCCCCCCCCc1ccc(C(=O)N(C)CCCN)cc1` [13a, N-(3-Aminopropyl)-4-decyl-N-methylbenzamide Hydrochloride] stands 39 ± 4%; under `CCCCCCCCCCc1ccc(C(=S)NCCCN)cc1` [15a, N-(3-Aminopropyl)-4-decylbenzothioamide Hydrochloride], 23 ± 1%.
Take `CCCCCCCCCCc1ccc(N(C)C(=O)N2CCNCC2)cc1` [17a, N-(4-Decylphenyl)-N-methylpiperazine-1-carboxamide Hydrochloride]: the inhibition at 1 µM stood at 13 ± 4%.
The same measure, in the same setting: the result for `CCCCCCCCCCc1ccc(N(C)C(=O)N2CC3CC2CN3)cc1` (stereo not shown) [17b, N-(4-Decylphenyl)-N-methyl-2,5-diazabicyclo[2.2.1]heptane-2-carboxamide Hydrochloride] reads 24 ± 9%; that for `CCCCCCCCCCc1ccc(N(C)C(=O)N2CC3CCC(C2)N3)cc1` [17c, N-(4-Decylphenyl)-N-methyl-3,8-diazabicyclo[3.2.1]octane-3-carboxamide Hydrochloride], 18 ± 1%; that for `CCCCCCCCCCc1ccc(NC(=O)N2CCN(C)CC2)cc1` [18a, N-(4-Decylphenyl)-4-methylpiperazine-1-carboxamide Hydrochloride], 43 ± 4%.
Still for that read-out and setting: under `CCCCCCCCCCc1ccc(NC(=O)N2CC[N+](C)(C)CC2)cc1` [18b, 4-((4-Decylphenyl)carbamoyl)-1,1-dimethylpiperazin-1-ium Iodide] stands 5 ± 3%; under `CCCCCCCCCCc1ccc(C(=O)N[C@@H]2CCNC2)cc1.Cl` [(R)-4c, (R)-4-Decyl-N-(pyrrolidin-3-yl)benzamide Hydrochloride], 61 to 66%.
For the compound `CCCCCCCCCCc1ccc(C(=O)N[C@@H]2CCCNC2)cc1` [(R)-4e, (R)-4-Decyl-N-(piperidin-3-yl)benzamide Hydrochloride], the inhibition at 1 µM was found to be 73 ± 1%.
Regarding `CCCCCCCCCCc1ccc(NC(=O)O[C@@H]2CCNC2)cc1` [(R)-8b, (R)-Pyrrolidin-3-yl (4-Decylphenyl)carbamate Hydrochloride], the inhibition at 1 µM worked out at 68 ± 1%.
The same measure, in the same setting: the result for `CCCCCCCCCCc1ccc(NC(=O)O[C@@H]2CCCNC2)cc1` [(R)-8d, (R)-Piperidin-3-yl (4-Decylphenyl)carbamate Hydrochloride] reads 45 ± 3%; that for `CCCCCCCCCCc1ccc(NC(=O)N[C@@H]2CCNC2)cc1` [(R)-11c, (R)-1-(4-Decylphenyl)-3-(pyrrolidin-3-yl)urea Hydrochloride], 49%.
Turning to `CCCCCCCCCCc1ccc(NC(=O)N[C@@H]2CCCNC2)cc1` [(R)-11e, (R)-1-(4-Decylphenyl)-3-(piperidin-3-yl)urea Hydrochloride], the inhibition at 1 µM is 86%.

Staying with this assay, now noted: HeLa, read-out: %Inhib. (Spns2 inhibition, percent decrease in S1P secretion relative to control).
For the compound `CCCCCCCCCCc1ccc(C(=O)NC2CNC2)cc1` [4b, N-(Azetidin-3-yl)-4-decylbenzamide 2,2,2-Trifluoroacetate], the inhibition at 1 µM amounted to 77 ± 1%.
